Experimental data published in ChEMBL document CHEMBL4507268 (2021).

Assays:
[1] = biological target: D(1A) dopamine receptor (Homo sapiens) (UniProt P21728); details: Compound concentration 10.0 uM
[2] = biological target: 5'-AMP-activated protein kinase catalytic subunit alpha-1 (Homo sapiens) (UniProt Q13131); details: Compound concentration 1.0 uM
[3] = biological target: Tyrosine-protein kinase receptor UFO (Homo sapiens) (UniProt P30530); details: Compound concentration 1.0 uM
[4] = biological target: Tyrosine-protein kinase Blk (Homo sapiens) (UniProt P51451); details: Compound concentration 1.0 uM
[5] = biological target: CDK4/Cyclin D3 (Homo sapiens) (UniProt P11802+P30281); details: Compound concentration 1.0 uM
[6] = biological target: Dual specificity protein kinase CLK4 (Homo sapiens) (UniProt Q9HAZ1); details: Compound concentration 1.0 uM
[7] = biological target: RAF proto-oncogene serine/threonine-protein kinase (Homo sapiens) (UniProt P04049); details: Compound concentration 1.0 uM
[8] = biological target: Receptor tyrosine-protein kinase erbB-4 (Homo sapiens) (UniProt Q15303); details: Compound concentration 1.0 uM
[9] = biological target: Tyrosine-protein kinase Fgr (Homo sapiens) (UniProt P09769); details: Compound concentration 1.0 uM
[10] = biological target: Interleukin-1 receptor-associated kinase 1 (Homo sapiens) (UniProt P51617); details: Compound concentration 1.0 uM
[11] = biological target: MAP kinase-activated protein kinase 2 (Homo sapiens) (UniProt P49137); details: Compound concentration 1.0 uM
[12] = biological target: T1, Mitogen-activated protein kinase 12 (Homo sapiens) (UniProt P53778); details: Compound concentration 1.0 uM
T1 sequence (whole entry): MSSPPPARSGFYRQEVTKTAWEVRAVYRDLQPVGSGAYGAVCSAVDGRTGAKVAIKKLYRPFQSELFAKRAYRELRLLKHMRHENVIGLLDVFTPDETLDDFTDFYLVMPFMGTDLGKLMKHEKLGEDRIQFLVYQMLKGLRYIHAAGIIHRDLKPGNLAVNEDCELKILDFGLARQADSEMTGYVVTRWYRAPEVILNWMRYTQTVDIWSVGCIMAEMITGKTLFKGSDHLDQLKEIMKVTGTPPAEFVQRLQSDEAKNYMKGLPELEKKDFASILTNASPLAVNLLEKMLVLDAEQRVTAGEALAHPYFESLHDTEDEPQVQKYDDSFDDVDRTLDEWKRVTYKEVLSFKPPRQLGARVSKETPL

[13] = biological target: T2, TGF-beta receptor type-1 (Homo sapiens) (UniProt P36897); details: Compound concentration 1.0 uM
T2 sequence (whole entry): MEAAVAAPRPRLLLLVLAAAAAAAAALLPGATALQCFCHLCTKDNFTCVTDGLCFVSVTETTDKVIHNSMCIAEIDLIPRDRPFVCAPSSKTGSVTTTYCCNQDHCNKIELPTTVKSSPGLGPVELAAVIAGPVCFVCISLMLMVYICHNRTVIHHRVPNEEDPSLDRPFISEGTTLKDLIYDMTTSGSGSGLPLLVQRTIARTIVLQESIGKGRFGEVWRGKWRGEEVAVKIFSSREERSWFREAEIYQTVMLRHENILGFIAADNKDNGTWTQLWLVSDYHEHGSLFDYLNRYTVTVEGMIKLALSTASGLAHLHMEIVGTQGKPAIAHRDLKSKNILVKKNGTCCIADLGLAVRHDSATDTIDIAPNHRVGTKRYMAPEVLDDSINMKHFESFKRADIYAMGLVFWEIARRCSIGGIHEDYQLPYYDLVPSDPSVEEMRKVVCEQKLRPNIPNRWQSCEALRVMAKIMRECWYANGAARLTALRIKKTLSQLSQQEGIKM

[14] = biological target: T3, Dual specificity protein kinase TTK (Homo sapiens) (UniProt P33981); details: Compound concentration 1.0 uM
T3 sequence (whole entry): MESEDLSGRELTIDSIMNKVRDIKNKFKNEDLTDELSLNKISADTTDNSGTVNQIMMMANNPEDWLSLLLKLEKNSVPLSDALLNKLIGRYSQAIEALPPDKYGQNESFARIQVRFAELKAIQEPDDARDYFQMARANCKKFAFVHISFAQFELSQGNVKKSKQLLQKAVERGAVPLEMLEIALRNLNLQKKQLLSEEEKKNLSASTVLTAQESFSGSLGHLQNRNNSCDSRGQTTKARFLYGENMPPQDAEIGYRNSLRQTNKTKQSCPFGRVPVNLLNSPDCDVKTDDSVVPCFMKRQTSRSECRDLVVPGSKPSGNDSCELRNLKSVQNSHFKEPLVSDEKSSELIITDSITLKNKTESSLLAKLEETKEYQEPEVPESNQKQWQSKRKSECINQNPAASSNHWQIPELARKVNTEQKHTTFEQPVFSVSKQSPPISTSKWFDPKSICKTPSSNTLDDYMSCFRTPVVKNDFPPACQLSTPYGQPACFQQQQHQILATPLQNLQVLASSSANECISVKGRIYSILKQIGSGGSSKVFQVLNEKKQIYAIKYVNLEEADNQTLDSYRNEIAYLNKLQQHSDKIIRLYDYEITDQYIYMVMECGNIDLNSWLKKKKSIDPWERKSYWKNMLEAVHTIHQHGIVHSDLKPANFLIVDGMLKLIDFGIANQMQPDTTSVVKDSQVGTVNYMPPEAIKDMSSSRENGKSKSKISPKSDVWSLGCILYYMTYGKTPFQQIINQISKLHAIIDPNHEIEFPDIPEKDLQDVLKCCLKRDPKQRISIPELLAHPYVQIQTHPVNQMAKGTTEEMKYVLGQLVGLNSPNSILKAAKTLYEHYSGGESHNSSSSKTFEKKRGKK

[15] = biological target: Serine/threonine-protein kinase WNK2 (Homo sapiens) (UniProt Q9Y3S1); details: Compound concentration 1.0 uM

Sequence of Tyrosine-protein kinase Fgr (Homo sapiens) (P09769 2-529 limits assumed): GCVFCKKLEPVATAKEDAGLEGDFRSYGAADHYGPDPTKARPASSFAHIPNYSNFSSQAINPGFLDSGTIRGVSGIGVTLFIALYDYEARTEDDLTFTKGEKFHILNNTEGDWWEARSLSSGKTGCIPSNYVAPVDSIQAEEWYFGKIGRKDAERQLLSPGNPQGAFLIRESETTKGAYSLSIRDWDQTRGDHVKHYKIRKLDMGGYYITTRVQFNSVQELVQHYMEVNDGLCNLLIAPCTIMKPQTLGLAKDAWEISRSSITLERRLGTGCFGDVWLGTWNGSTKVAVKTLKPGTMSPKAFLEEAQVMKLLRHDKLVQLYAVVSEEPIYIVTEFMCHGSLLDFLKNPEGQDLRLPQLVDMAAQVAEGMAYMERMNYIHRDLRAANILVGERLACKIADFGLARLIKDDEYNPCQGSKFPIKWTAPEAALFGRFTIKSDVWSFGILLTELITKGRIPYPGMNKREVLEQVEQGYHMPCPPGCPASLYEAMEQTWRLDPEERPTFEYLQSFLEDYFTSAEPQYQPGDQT
Sequence of 5'-AMP-activated protein kinase catalytic subunit alpha-1 (Homo sapiens) (Q13131 whole entry, looked up): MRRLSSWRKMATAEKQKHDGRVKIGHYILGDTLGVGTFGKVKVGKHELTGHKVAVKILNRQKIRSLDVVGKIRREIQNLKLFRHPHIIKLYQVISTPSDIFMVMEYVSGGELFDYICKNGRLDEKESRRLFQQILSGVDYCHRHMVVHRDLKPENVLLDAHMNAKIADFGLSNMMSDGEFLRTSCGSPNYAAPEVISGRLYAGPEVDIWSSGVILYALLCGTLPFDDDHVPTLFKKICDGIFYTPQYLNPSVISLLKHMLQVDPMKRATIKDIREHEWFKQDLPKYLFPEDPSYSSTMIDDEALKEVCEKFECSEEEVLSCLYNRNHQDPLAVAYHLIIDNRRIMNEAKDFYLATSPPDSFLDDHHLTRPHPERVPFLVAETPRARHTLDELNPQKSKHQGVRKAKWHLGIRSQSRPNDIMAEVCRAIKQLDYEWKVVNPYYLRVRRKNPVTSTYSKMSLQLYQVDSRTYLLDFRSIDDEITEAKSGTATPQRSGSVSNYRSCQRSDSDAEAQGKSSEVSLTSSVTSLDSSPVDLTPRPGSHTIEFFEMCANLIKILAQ
Sequence of RAF proto-oncogene serine/threonine-protein kinase (Homo sapiens) (P04049 whole entry): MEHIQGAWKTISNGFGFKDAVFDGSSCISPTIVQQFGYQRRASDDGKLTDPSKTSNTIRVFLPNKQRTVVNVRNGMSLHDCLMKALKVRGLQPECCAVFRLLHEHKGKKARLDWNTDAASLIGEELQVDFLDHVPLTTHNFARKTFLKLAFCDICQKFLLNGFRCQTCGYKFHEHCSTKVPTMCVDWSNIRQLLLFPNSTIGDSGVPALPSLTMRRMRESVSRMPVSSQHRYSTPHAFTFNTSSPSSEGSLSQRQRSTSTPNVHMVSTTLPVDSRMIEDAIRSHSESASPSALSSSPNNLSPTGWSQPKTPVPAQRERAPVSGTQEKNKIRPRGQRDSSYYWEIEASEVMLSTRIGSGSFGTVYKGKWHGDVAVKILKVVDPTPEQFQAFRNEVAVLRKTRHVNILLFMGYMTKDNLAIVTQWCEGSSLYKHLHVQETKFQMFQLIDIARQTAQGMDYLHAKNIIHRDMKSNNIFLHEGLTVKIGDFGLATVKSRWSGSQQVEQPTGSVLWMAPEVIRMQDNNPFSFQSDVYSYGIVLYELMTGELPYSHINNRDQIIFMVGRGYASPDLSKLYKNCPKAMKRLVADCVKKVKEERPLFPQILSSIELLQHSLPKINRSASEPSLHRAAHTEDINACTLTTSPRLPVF
Sequence of Tyrosine-protein kinase Blk (Homo sapiens) (P51451 2-505 limits assumed): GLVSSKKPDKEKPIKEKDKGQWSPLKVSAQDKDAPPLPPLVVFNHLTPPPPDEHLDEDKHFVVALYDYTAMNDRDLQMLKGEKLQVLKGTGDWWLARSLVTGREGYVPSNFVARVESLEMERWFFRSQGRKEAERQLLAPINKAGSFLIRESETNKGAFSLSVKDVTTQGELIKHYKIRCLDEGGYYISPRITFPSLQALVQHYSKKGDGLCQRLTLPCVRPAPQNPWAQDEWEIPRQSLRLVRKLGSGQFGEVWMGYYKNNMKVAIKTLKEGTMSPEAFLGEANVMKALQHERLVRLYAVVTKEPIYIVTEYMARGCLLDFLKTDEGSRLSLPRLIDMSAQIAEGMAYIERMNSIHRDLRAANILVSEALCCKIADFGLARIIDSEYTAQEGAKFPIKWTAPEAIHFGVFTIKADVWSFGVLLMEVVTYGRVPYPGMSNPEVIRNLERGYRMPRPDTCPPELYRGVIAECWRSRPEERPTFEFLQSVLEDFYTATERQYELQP
Sequence of Interleukin-1 receptor-associated kinase 1 (Homo sapiens) (P51617 whole entry, looked up): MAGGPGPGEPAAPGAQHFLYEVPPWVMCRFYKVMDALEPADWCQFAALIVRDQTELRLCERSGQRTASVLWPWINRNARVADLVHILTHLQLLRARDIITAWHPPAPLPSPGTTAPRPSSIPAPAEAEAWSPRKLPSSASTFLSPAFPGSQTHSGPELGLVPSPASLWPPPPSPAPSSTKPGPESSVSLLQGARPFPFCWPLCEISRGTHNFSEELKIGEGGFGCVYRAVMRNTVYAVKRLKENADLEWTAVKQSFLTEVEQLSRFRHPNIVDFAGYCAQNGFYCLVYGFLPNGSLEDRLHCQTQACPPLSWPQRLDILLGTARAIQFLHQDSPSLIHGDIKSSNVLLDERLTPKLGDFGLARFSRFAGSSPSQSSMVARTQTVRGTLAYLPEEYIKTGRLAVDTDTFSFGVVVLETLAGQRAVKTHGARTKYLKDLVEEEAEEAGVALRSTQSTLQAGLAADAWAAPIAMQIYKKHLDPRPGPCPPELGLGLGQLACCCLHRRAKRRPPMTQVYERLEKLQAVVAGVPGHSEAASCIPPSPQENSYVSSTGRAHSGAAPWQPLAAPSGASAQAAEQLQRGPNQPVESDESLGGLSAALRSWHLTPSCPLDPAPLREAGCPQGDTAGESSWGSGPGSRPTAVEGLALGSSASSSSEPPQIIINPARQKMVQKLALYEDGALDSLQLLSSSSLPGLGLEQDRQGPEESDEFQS
Sequence of MAP kinase-activated protein kinase 2 (Homo sapiens) (P49137 whole entry, looked up): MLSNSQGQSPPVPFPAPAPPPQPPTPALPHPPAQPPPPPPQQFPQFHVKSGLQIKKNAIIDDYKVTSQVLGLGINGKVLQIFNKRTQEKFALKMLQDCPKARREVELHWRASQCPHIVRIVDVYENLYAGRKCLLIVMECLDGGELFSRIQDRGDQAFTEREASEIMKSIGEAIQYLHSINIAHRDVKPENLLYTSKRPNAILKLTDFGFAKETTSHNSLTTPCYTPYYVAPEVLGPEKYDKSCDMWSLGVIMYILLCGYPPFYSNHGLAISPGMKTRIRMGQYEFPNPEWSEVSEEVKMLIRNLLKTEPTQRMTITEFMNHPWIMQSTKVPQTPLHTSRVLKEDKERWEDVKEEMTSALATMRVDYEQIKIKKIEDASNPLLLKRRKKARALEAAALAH
Sequence of Tyrosine-protein kinase receptor UFO (Homo sapiens) (P30530 whole entry): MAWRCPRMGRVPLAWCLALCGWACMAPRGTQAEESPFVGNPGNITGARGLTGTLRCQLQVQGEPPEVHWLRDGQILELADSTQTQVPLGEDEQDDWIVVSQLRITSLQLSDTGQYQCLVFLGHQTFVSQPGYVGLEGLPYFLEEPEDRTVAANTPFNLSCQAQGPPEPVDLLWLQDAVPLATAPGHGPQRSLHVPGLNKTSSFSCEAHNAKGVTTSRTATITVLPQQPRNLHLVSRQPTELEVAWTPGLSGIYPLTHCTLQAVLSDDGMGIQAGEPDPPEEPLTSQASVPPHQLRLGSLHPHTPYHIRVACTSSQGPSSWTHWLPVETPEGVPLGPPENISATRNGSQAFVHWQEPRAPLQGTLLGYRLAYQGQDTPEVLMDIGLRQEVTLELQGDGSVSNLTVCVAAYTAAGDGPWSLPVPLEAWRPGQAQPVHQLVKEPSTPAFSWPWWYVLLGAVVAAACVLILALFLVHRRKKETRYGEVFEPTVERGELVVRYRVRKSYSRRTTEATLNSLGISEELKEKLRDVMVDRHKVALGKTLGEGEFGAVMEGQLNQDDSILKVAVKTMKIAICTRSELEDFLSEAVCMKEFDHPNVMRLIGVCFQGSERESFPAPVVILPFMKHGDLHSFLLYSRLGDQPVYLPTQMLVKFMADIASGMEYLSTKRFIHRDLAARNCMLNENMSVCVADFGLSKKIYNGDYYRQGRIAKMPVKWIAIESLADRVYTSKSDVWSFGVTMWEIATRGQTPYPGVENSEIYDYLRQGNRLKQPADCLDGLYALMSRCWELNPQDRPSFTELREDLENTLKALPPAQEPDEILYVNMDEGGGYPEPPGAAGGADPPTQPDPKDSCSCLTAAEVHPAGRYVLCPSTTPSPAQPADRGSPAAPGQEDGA
Sequence of Dual specificity protein kinase CLK4 (Homo sapiens) (Q9HAZ1 whole entry, looked up): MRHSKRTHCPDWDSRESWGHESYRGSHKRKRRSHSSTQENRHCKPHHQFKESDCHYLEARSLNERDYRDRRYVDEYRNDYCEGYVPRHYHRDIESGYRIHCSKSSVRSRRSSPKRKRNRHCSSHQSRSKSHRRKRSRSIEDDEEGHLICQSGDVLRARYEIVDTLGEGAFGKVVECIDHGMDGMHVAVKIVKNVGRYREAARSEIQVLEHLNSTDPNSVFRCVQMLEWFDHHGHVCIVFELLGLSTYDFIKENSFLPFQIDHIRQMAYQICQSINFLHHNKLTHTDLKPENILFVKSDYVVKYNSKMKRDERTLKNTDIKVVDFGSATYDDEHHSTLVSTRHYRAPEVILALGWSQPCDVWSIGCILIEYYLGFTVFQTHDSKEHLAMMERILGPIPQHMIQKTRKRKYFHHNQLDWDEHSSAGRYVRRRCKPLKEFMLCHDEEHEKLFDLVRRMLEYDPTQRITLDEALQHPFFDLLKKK

Cc1nc(C2CCN(C(=O)c3ccc(OC(F)(F)F)cc3N)CC2)c2ncc(N3CCN(C)CC3)cc2n1 [BAY-693]
inactive: inhibition [1] 2.66%

CN1CCN(c2cnc3c(C4CCN(C(=O)c5ccc(OC(F)(F)F)cc5N)CC4)ncnc3c2)CC1 [BAY-885]
inactive: % residual kinase activity [2] 101% | % residual kinase activity [3] 91% | % residual kinase activity [4] 88% | % residual kinase activity [5] 106% | % residual kinase activity [6] 118% | % residual kinase activity [7] 107% | % residual kinase activity [8] 98% | % residual kinase activity [9] 98% | % residual kinase activity [10] 110% | % residual kinase activity [11] 81% | % residual kinase activity [12] 112% | % residual kinase activity [13] 81% | % residual kinase activity [14] 93% | % residual kinase activity [15] 107%
